Results on 31 compounds are retold here after the supplement of paper PMC11616607.

One test concerns HOSE1C. Briefly: drug sensitivity score (DSS) from 5-point dose-response viability curve (DSS (area-under-curve based score)); higher = more sensitive (stronger growth inhibition or killing); extreme values may be limits of the assay. The settings on record: exposure time: 72 h; concentration range: 5 concentrations over 10,000-fold range. Put shortly: (§1)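 For the drug sensitivity score, obtained per cell line and drug in Breeze software, larger values mean greater sensitivity. No response corresponds to a score of zero. Ovarian cancer and normal ovarian cells were seeded at 1,500 per well into 384-well plates already holding acoustically dispensed drugs (Echo 550, DMSO or water, five concentrations over a 10,000-fold range) and incubated 3 days at 37°C, 5% CO2. CellTiter-Glo luminescence on a PHERAstar FS gave the viability readout.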
On to `CN(C)CCOc1ccc(/C(=C(/CCCl)c2ccccc2)c2ccccc2)cc1` [Toremifene], for which the drug sensitivity score was determined as 3.5.

Turning to `CC(C)C[C@@H](C(=O)N[C@H](C(=O)OC1CCCC1)c1ccccc1)[C@H](O)C(=O)NO` [Tosedostat], the drug sensitivity score was 0.

As to `Cc1cc(Nc2cc(N3CCN(C)CC3)nc(Sc3ccc(NC(=O)C4CC4)cc3)n2)n[nH]1` [Tozasertib], the drug sensitivity score came out at 5.2.

Take `CC(=O)Nc1cccc(-n2c(=O)n(C3CC3)c(=O)c3c(Nc4ccc(I)cc4F)n(C)c(=O)c(C)c32)c1` [Trametinib]: the drug sensitivity score is 0.

Take `CC1=C(/C=C/C(C)=C/C=C/C(C)=C/C(=O)O)C(C)(C)CCC1` [Tretinoin]: the drug sensitivity score turned out to be 0.

The compound `NC(=S)N/N=C/c1ncccc1N` [Triapine] had a drug sensitivity score of 9.7.

For `O=c1[nH]c(=O)n([C@H]2C[C@H](O)[C@@H](CO)O2)cc1C(F)(F)F` [Trifluridine], the drug sensitivity score was determined as 0.

In turn, `O=C(CCCCCCC(=O)Nc1ccc([C@H]2O[C@@H](CSc3nc(-c4ccccc4)c(-c4ccccc4)o3)C[C@@H](c3ccc(CO)cc3)O2)cc1)NO` [Tubacin] yielded a drug sensitivity score of 2.5.

`CN1CCc2c(c3ccccc3n2Cc2ccc(C(=O)NO)cc2)C1` [Tubastatin A] yielded a drug sensitivity score of 4.2.

In turn, `Cc1cc(Nc2ncnc3ccc(NC4=NC(C)(C)CO4)cc23)ccc1Oc1ccn2ncnc2c1` [Tucatinib] returned a drug sensitivity score of 0.

As for `Nc1cc(F)ccc1NC(=O)c1ccc(CNC(=O)/C=C/c2cccnc2)cc1` [Tucidinostat], the drug sensitivity score amounted to 14.7.

Compound `CN[C@@H]1C[C@H]2O[C@@](C)([C@@H]1OC)n1c3ccccc3c3c4c(c5c6ccccc6n2c5c31)C(=O)N[C@H]4O` [UCN-01] displayed a drug sensitivity score of 27.8.

Turning to `COC(=O)c1ccc2c(c1)[nH]c1ncnc(NCCCN3CCCCC3)c12` [UM729], the drug sensitivity score amounted to 0.2.

`COc1cc2c(NC3CCN(C(C)C)CC3)nc(C3CCCCC3)nc2cc1OCCCN1CCCC1` [UNC0638]: the drug sensitivity score amounted to 0.

Turning to `COc1cc2c(NC3CCN(C(C)C)CC3)nc(N3CCC(F)(F)CC3)nc2cc1OCCCN1CCCC1` [UNC0642], the drug sensitivity score came to 0.

`O=C(c1ccc(C(=O)N2CCC(N3CCCC3)CC2)c(Nc2ccccc2)c1)N1CCC(N2CCCC2)CC1` [UNC1215] registered a drug sensitivity score of 0.

`CCCCNc1ncc(C(=O)NCc2ccc(-n3ccnc3)cc2)c(NC2CCC(O)CC2)n1` (stereo unspecified) [UNC2881] displayed a drug sensitivity score of 0.

The compound `NC(=O)c1cccc(-c2cccc(OC(=O)NC3CCCCC3)c2)c1` [URB597] returned a drug sensitivity score of 0.

Regarding `CC(C)Nc1cc(-c2c[nH]c(C(=O)N[C@H](CO)c3cccc(Cl)c3)c2)c(Cl)cn1` [Ulixertinib], the drug sensitivity score was found to be 0.

`CC[C@@H]1CN(C(=O)NCC(F)(F)F)C[C@@H]1c1cnc2cnc3[nH]ccc3n12` [Upadacitinib] returned a drug sensitivity score of 0.

Regarding `Cn1ncc(Cl)c1-c1cc(C(=O)N[C@H](CN)Cc2ccc(F)c(F)c2)oc1Cl` [Uprosertib], the drug sensitivity score was 3.2.

`CS(=O)(=O)c1ccc(-c2cnc(N)c(C(=O)Nc3ccccc3)n2)cc1` [VE-821] displayed a drug sensitivity score of 4.

With `O=C(O)CC1CC(c2ccccc2)=NO1` (stereo unspecified) [VGX-1027], the drug sensitivity score came out at 0.

For `C=CC(=O)N1CC/C(=C\c2ccc(F)c([N+](=O)[O-])c2)C(=O)/C(=C/c2ccc(F)c([N+](=O)[O-])c2)C1` [VLX1570], the drug sensitivity score was 23.3.

In turn, `CNC(=O)c1ccccc1Nc1cc(Nc2ccc(N3CCOCC3)cc2OC)ncc1C(F)(F)F` [VS-4718] showed a drug sensitivity score of 3.6.

In turn, `CCCC(CCC)C(=O)O` [Valproic acid] returned a drug sensitivity score of 0.

`CCCCC(=O)OCC(=O)[C@]1(O)Cc2c(O)c3c(c(O)c2[C@@H](O[C@H]2C[C@H](NC(=O)C(F)(F)F)[C@H](O)[C@H](C)O2)C1)C(=O)c1c(OC)cccc1C3=O` [Valrubicin]: the drug sensitivity score is 10.1.

`COc1cc2/c(=N/c3ccc(Br)cc3F)nc[nH]c2cc1OCC1CCN(C)CC1` [Vandetanib] gave a drug sensitivity score of 0.

As for `CCc1c(C(=O)C(N)=O)c2c(OCC(=O)O)cccc2n1Cc1ccccc1` [Varespladib], the drug sensitivity score stood at 0.

Consider `C[C@@H]1COC(Nc2ccc3ncnc(Nc4ccc(OCc5nccs5)c(Cl)c4)c3c2)=N1` [Varlitinib], for which the drug sensitivity score came out at 0.4.

In turn, `Clc1ccc(Nc2nnc(Cc3ccncc3)c3ccccc23)cc1` [Vatalanib] returned a drug sensitivity score of 0.

The subject of another test is HOSE2C. The description is as above. To be noted: exposure time: 72 h; concentration range: 5 concentrations over 10,000-fold range. Put shortly: as §1
In turn, `CN(C)CCOc1ccc(/C(=C(/CCCl)c2ccccc2)c2ccccc2)cc1` [Toremifene] displayed a drug sensitivity score of 1.6.

The compound `CC(C)C[C@@H](C(=O)N[C@H](C(=O)OC1CCCC1)c1ccccc1)[C@H](O)C(=O)NO` [Tosedostat] yielded a drug sensitivity score of 2.1.

`Cc1cc(Nc2cc(N3CCN(C)CC3)nc(Sc3ccc(NC(=O)C4CC4)cc3)n2)n[nH]1` [Tozasertib] yielded a drug sensitivity score of 6.8.

Turning to `CC(=O)Nc1cccc(-n2c(=O)n(C3CC3)c(=O)c3c(Nc4ccc(I)cc4F)n(C)c(=O)c(C)c32)c1` [Trametinib], the drug sensitivity score is 0.

`CC1=C(/C=C/C(C)=C/C=C/C(C)=C/C(=O)O)C(C)(C)CCC1` [Tretinoin] came in with a drug sensitivity score of 5.7.

Compound `NC(=S)N/N=C/c1ncccc1N` [Triapine] registered a drug sensitivity score of 7.7.

In the case of `O=c1[nH]c(=O)n([C@H]2C[C@H](O)[C@@H](CO)O2)cc1C(F)(F)F` [Trifluridine], the drug sensitivity score amounted to 0.

`O=C(CCCCCCC(=O)Nc1ccc([C@H]2O[C@@H](CSc3nc(-c4ccccc4)c(-c4ccccc4)o3)C[C@@H](c3ccc(CO)cc3)O2)cc1)NO` [Tubacin] registered a drug sensitivity score of 2.6.

In the case of `CN1CCc2c(c3ccccc3n2Cc2ccc(C(=O)NO)cc2)C1` [Tubastatin A], the drug sensitivity score amounted to 2.7.

The compound `Cc1cc(Nc2ncnc3ccc(NC4=NC(C)(C)CO4)cc23)ccc1Oc1ccn2ncnc2c1` [Tucatinib] displayed a drug sensitivity score of 0.

Compound `Nc1cc(F)ccc1NC(=O)c1ccc(CNC(=O)/C=C/c2cccnc2)cc1` [Tucidinostat] showed a drug sensitivity score of 10.8.

`CN[C@@H]1C[C@H]2O[C@@](C)([C@@H]1OC)n1c3ccccc3c3c4c(c5c6ccccc6n2c5c31)C(=O)N[C@H]4O` [UCN-01] returned a drug sensitivity score of 29.7.

`COC(=O)c1ccc2c(c1)[nH]c1ncnc(NCCCN3CCCCC3)c12` [UM729] showed a drug sensitivity score of 0.

In the case of `COc1cc2c(NC3CCN(C(C)C)CC3)nc(C3CCCCC3)nc2cc1OCCCN1CCCC1` [UNC0638], the drug sensitivity score was determined as 0.

In turn, `COc1cc2c(NC3CCN(C(C)C)CC3)nc(N3CCC(F)(F)CC3)nc2cc1OCCCN1CCCC1` [UNC0642] came in with a drug sensitivity score of 0.
